Measured values: article PMC11149917, “Translational and Therapeutic Evaluation of RAS-GTP Inhibition by RMC-6236 in RAS-Driven Cancers” (Cancer Discovery, 2024)
Several values for one entry are separate records, joined by “and”; a condition that tells them apart may be missing. Identical values can stand only once.

Key:
[1] = system: LU99-Luc (KRAS^G12C/WT, NSCLC) intracranial xenograft; test: Intracranial tumor model (bioluminescence); format: in vivo, mouse; conditions: 25 mg/kg daily oral, 21 days
Description: (§1) LU99 cells (JCRB0080) were stably modified with lentivirus-based pHBLV-CMV-MCS-EF1-fLuc-T2A-puro vector to generate luciferase-expressing LU99-Luc cells. NCI-H1373 cells (ATCC CRL-5866) were stably modified with lentivirus-based pHBLV-CMV-MCS-EF1-fluc-T2A-PURO vector to generate luciferase-expressing NCI-H1373-Luc cells. The eCT26 Kras^G12C^/G12CAbcb1^−^/^− (clone I20) and eCT26 Kras^G12D^/G12DAbcb1^−^/^− (clone I12) cell lines were engineered from the murine CT26 homozygous Kras^G12D tumor cell line (ATCC CRL-2638). All Kras^G12D alleles were replaced with Kras^G12C using CRISPR technology at Synthego. Additionally, the P-glycoprotein drug transporter, Abcb1a and Abcb1b, were knocked out using CRISPR guide sequences […] and […], respectively. The homozygous G12C mutation and the Abcb1 knockout were confirmed by Sanger sequencing in the clone selected and were used for in vivo experiments.
(§2) NCI-H1373-Luc cells (3 × 10^5) were prepared in 3 µL sterile PBS with 20% Matrigel. Each mouse was anesthetized by intraperitoneal (ip) injection of sterile avertin (250 mg/kg) and positioned on the stereotaxic unit. Cells were intracranially injected over 2 minutes at the site 2 mm lateral (right), 0.5 mm anterior, and 3 mm ventral with respect to the bregma. […] The bioluminescence and animal weights were measured and recorded once and twice per week, respectively. […]

[2] = system: NCI-H1373-Luc intracranial xenograft; test: Intracranial tumor model (bioluminescence); format: in vivo, mouse; conditions: 25 mg/kg daily oral, 28 days
Description: as §1, §2

[3] = In vitro whole blood-plasma partitioning fitting; format: in vitro ADME, human; conditions: for Blood-plasma ratio: Human
Method: Tumor PK and PD were added to the model by incorporating blood-plasma partitioning, plasma protein binding, and tumor partitioning and PD parameters.
B:P=B:P0-(Imax*CBIC50+CB)
Where B:P is the blood:plasma partitioning ratio at a specific blood concentration, B:P0 is the fitted blood:plasma partitioning ratio at zero concentration, Imax is the maximal decrease in blood:plasma partitioning, and IC50 is the half-maximal concentration in blood to achieve the lowest blood:plasma partitioning ratio.

For `CCn1c(-c2cc(N3CCN(C)CC3)cnc2[C@H](C)OC)c2c3cc(ccc31)-c1csc(n1)C[C@H](NC(=O)[C@H]1C[C@@H]1C)C(=O)N1CCC[C@H](N1)C(=O)OCC(C)(C)C2` [RMC-6236], which “tumor response by bioluminescent signal” value [1] is on record?
The value was “tumor regressions”.

What about the “tumor response by bioluminescent signal” value [2] of the same molecule?
Its value is “tumor regressions”.

And the Blood-plasma ratio ([3]; concentration 0.05 µM)?
The Blood-plasma ratio was 4.86 and 5.48 and 5.49.

And the Blood-plasma ratio ([3]; concentration 0.1 µM)?
The Blood-plasma ratio was 5.31 and 5.73 and 5.41.

What about the Blood-plasma ratio ([3]; concentration 0.5 µM) of the same molecule?
The Blood-plasma ratio was 3.7 and 4.38 and 4.15.

What about the Blood-plasma ratio ([3]; concentration 1 µM) of the same molecule?
Its Blood-plasma ratio is 2.96 and 3.18 and 2.73.

And the Blood-plasma ratio ([3]; concentration 10 µM)?
Its Blood-plasma ratio is 0.76 and 1.07.

What about the E0 ([3]; In vitro Human BP Fitting) of the same molecule?
Its E0 is 5.712.

What about the Imax ([3]; In vitro Human BP Fitting) of the same molecule?
The Imax was 5.23.

And the blood plasma ratio ([3]; whole blood, Human Blood-Plasma Fitting, %CV 3.36, read-out: E0 (blood:plasma partitioning ratio at zero concentration))?
The blood plasma ratio was 5.71.
